Experimental data: patent US6632809B2, “Gyrase inhibitors and uses thereof” (Vertex Pharmaceuticals Incorporated, priority 2000, dated 2003)
≈ marks a conversion by molar mass, not a printed value.

Experiments:
[1] = biological target: DNA gyrase (374 kDa Gyr A2B2 subunit from Staphylococcus aureus) (Staphylococcus aureus, UniProt P0A0K8); experiment: Gyrase ATPase Assay; type: biochemical; conditions: 10 μM concentration; ATPase assay at 30° C., 0.9 mM ATP; average of duplicate values; read-out: Gyrase Inhibitory Activity (percent inhibition)
Experimental: The ATP hydrolysis activity of DNA gyrase was measure by coupling the production of ADP through pyruvate kinase/lactate dehydrogenase to the oxidation of NADH. This method has been described previously (Tamura and Gellert, 1990, J. Biol. Chem., 265, 21342).
ATPase assays are carried out at 30° C. in buffered solutions containing 100 mM TRIS pH 7.6, 1.5 mM MgCl2, 50 mM KCl. The coupling system contains (final concentrations) 2.5 mM phosphoenol pyruvate, 200 μM nicotinamide adenine dinucleotide (NADH), 1 mM DTT, […], and 10 ug/ml lactate dehydrogenase. 40 nanomolar enzyme (374 kDa Gyr A2B2 subunit from Staphylococcus aureus) and a DMSO solution of the inhibitor to a final concentration of 4% are added and the reaction mixture is allowed to incubate for 10 minutes at 30° C. The reaction is then started by the addition of ATP to a final concentration of 0.9 mM and the rate of NADH disappearance at 340 nanometers is measured over the course of 10 minutes. The percent inhibition values are determined from rate versus concentration profiles and are reported as the average of duplicate values.
The compound numbers correspond to the compound numbers in Table 1. Compounds having an activity designated as “A” provided a percent inhibition value below 50 percent; compounds having an activity designated as “B” provided a percent inhibition value between 50 and 75 percent; and compounds having an activity designated as “C” provided a percent inhibition value greater than 75 percent.

test bacteria = experiment: Susceptibility Testing in Liquid Media (MIC assay); type: cell-based; conditions: broth dilution, MHB, 35° C. overnight (16 to 20 hr), organism not given; for MIC: read-out: MIC (minimal inhibitory concentration) activity level
Experimental: Susceptibility Testing in Liquid Media
Compounds of this invention were also tested for antimicrobial activity by susceptibility testing in liquid media. Such assays were performed within the guidelines of the latest NCCLS document governing such practices: “M7-A5 Methods for dilution Antimicrobial Susceptibility Tests for Bacteria that Grow Aerobically; Approved Standard—Fifth Edition (2000)”. Other publications such as “Antibiotics in Laboratory Medicine” (Edited by V. Lorian, Publishers Williams and Wilkins, 1996) provide essential practical techniques in laboratory antibiotic testing. Essentially, several discrete bacterial colonies (3 to 7) from a freshly streaked plate were transferred to an appropriate rich broth medium such as MHB, supplemented where appropriate for the more fastidious organisms. This was grown overnight to high density followed by a 1 or 2-thousand-fold dilution to give an inoculation density of between 5×10^5 and 5×10^6 CFU per mL. Alternatively, the freshly picked colonies can be incubated at 37° C. for about 4 to 8 hrs until the culture equals or exceeds a turbidity of a 0.5 McFarland standard (approximately 1.5×10^8 cells per mL) and diluted to give the same CFU per mL as above. In a more convenient method, the inoculum was prepared using a commercially available mechanical device (the BBL PROMPT System) that involves touching five colonies directly with a wand, containing crosshatch grooves at its bottom, followed by suspension of the bacteria in an appropriate volume of saline. Dilution to the appropriate inoculum cell density was made from this cell suspension. The broth used for testing consists of MHB supplemented with 50 mg per L of Ca^2+ and 25 mg per L of Mg^2+. Standard dilution panels of control antibiotics were made and stored as in the NCCLS standard M7-A5, the dilution range typically being in the 128 μg per mL to 0.015 μg per mL (by 2-fold serial dilution). The test compounds were dissolved and diluted fresh for experimentation on the same day; the same or similar ranges of concentration as above being used. The test compounds and controls were dispensed into a multiwell plate and test bacteria added such that the final inoculation was approximately 5×10^4 CFU per well and the final volume was 100 μL. The plates were incubated at 35° C. overnight (16 to 20 hr) and checked by eye for turbidity or quantitated with a multiwell plate reader. […] Such determinations were also compared to the appropriate tables contained in the above two publications to ensure that the range of antibacterial activity is within the acceptable range for this standardized assay.
The compound numbers correspond to the compound numbers in Table 1.

DNA gyrase (374 kDa Gyr A2B2 subunit from Staphylococcus aureus), sequence (P0A0K8 whole entry): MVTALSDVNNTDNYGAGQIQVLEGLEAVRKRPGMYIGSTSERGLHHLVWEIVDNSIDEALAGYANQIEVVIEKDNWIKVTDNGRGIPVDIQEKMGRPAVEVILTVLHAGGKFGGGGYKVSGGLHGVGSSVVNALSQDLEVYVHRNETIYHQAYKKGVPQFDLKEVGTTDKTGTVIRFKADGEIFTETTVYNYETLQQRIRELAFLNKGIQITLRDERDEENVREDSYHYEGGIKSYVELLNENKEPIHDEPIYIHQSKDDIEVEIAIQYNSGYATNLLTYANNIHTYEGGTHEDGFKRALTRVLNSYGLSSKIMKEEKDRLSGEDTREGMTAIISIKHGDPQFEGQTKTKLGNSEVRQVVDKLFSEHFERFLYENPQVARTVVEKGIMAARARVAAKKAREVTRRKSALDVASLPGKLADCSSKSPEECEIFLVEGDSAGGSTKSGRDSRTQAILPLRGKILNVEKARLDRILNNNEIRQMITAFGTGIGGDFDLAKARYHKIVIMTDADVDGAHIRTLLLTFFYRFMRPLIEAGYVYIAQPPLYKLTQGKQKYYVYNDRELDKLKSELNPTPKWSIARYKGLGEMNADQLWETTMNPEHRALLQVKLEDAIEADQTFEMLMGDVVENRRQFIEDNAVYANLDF
DNA gyrase (374 kDa Gyr A2B2 subunit from Staphylococcus aureus), sequence (P20831 whole entry, further chain): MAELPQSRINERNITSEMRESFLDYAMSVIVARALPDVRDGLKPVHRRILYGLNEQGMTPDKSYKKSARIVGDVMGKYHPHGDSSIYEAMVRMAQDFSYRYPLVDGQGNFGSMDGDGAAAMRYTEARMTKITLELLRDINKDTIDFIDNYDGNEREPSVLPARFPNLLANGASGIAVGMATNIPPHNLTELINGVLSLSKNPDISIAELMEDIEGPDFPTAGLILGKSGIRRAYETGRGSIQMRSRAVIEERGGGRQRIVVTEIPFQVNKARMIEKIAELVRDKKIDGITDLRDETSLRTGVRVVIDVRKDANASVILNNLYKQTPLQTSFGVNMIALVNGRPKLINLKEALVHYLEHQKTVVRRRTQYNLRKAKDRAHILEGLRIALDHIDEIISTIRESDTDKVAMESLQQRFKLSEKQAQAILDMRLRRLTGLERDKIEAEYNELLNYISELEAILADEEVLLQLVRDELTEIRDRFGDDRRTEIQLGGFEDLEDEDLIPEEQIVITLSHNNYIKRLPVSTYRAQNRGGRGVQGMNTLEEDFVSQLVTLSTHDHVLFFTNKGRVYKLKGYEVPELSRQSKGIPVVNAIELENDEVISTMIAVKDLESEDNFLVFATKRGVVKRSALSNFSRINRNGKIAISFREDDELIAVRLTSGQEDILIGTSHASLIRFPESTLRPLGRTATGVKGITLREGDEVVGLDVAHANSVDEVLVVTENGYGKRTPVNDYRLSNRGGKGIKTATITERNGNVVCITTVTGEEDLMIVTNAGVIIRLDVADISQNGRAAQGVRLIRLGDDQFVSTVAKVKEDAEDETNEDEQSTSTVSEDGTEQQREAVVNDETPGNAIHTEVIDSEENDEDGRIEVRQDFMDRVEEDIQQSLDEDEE

| Structure (SMILES) | inhibition at 10 µM [1] | MIC (test bacteria) | MIC (minimal inhibitory concentration) activity level (test bacteria) |
| --- | --- | --- | --- |
| CCNC(=O)Nc1nc2cc(-n3cnc(C(=O)OC)c3)ccc2[nH]1 [Ia-156, 1-[2-(3-Ethyl-ureido)-3H-benzoimidazol-5-yl]-1H-imiazole-4-carboxylic acid methyl ester] | > 75% | 10 to 40 µg/mL (≈ 30.5 to 122 µM) |  |
| CCNC(=O)Nc1nc2cc(-n3cnc(C(=O)O)c3)ccc2[nH]1 [Ia-157, 1-[2-(3-Ethyl-ureido)-3H-benzoimidazol-5-yl]-1H-imidazole-4-carboxylic acid] | > 75% | > 40 µg/mL |  |
| CCNC(=O)Nc1nc2cc(-c3cccc(=O)[nH]3)ccc2[nH]1 [Ia-158] | > 75% | > 40 µg/mL |  |
| CC(C)CNC(=O)Nc1nc2cc(-c3ccc(F)nc3)ccc2[nH]1 [Ia-159] | < 50% | > 40 µg/mL |  |
| CCNC(=O)Nc1nc2cc(-n3ccc(=O)c(OCc4ccccc4)c3C)ccc2[nH]1 [Ia-160] | > 75% | > 40 µg/mL |  |
| CCNC(=O)Nc1nc2cc(-n3ccc(=O)c(O)c3C)ccc2[nH]1 [Ia-161] | < 50% | > 40 µg/mL |  |
| CCNC(=O)Nc1nc2cc(-n3cc(C(=O)O)cn3)ccc2[nH]1 [Ia-162] | > 75% | > 40 µg/mL |  |
| CCNC(=O)Nc1nc2cc(-c3ccc(OCC)nc3)ccc2[nH]1 [Ia-163] | > 75% | < 10 µg/mL |  |
| CCNC(=O)Nc1nc2cc(-c3cccnc3)c(N3CCOCC3)cc2[nH]1 [Ia-164] | > 75% | > 40 µg/mL |  |
| CCNC(=O)Nc1nc2cc(-c3ccccc3O)ccc2[nH]1 [Ia-165] | > 75% | 10 to 40 µg/mL (≈ 33.7 to 135 µM) |  |
| CCNC(=O)Nc1nc2cc(-c3ccc(N4CCOCC4)nc3)ccc2[nH]1 [Ia-166] | > 75% | > 40 µg/mL |  |
| CCNC(=O)Nc1nc2cc(-c3cccnc3)cc(O)c2[nH]1 [Ia-167] | > 75% |  | C (provided an MIC of greater than 40 μg/mL) |
| CCNC(=O)Nc1nc2cc(-c3cccnc3)cc(OCc3ccccc3)c2[nH]1 [Ia-168] | > 75% | < 10 µg/mL |  |
| CCNC(=O)Nc1nc2cc(-n3cnc(C(=O)N4CCOCC4)c3)ccc2[nH]1 [Ia-170] | > 75% | > 40 µg/mL |  |
| CCNC(=O)Nc1nc2cc(-n3cnc(C(=O)NCc4cccnc4)c3)ccc2[nH]1 [Ia-171] | > 75% | 10 to 40 µg/mL (≈ 24.7 to 98.9 µM) |  |
| CCNC(=O)Nc1nc2cc(-n3cc(C(=O)NCC(C)C)cn3)ccc2[nH]1 [Ia-173] | > 75% | 10 to 40 µg/mL (≈ 27.1 to 108 µM) |  |
| CCNC(=O)Nc1nc2cc(-n3cc(C(=O)NCc4cccnc4)cn3)ccc2[nH]1 [Ia-174] | > 75% | > 40 µg/mL |  |
| CCNC(=O)Nc1nc2cc(-c3ccc(N4CCCCC4)nc3)ccc2[nH]1 [Ia-175] | > 75% | > 40 µg/mL |  |
| CCNC(=O)Nc1nc2cc(-c3ccc(N4CCCC4)nc3)ccc2[nH]1 [Ia-177] | > 75% | > 40 µg/mL |  |
| CCNC(=O)Nc1nc2cc(-c3cccnc3)c(N3CCCCC3)cc2[nH]1 [Ia-178] | > 75% | < 10 µg/mL |  |
| CCNC(=O)Nc1nc2cc(-c3ccc(N4CCC(O)C4)nc3)ccc2[nH]1 (stereo not drawn) [Ia-179] | > 75% | > 40 µg/mL |  |
| CCNC(=O)Nc1nc2cc(-c3cccnc3)c(N3CCCC3)cc2[nH]1 [Ia-180] | > 75% | 10 to 40 µg/mL (≈ 28.5 to 114 µM) |  |
| CCNC(=O)Nc1nc2cc(-c3occc(=O)c3O)ccc2[nH]1 [Ia-181] | 50 to 75% | > 40 µg/mL |  |
| C=CCCCOc1ccc(-c2ccc3[nH]c(NC(=O)NCC)nc3c2)cn1 [Ia-182] | > 75% | > 40 µg/mL |  |
| CCNC(=O)Nc1nc2cc(-c3cccnc3)c(OC)c(F)c2[nH]1 [Ia-183] | 50 to 75% | > 40 µg/mL |  |
| CCNC(=O)Nc1nc2nc(-n3cnc(C(=O)OC)c3)ccc2[nH]1 [Ia-184] | 50 to 75% | > 40 µg/mL |  |
| CCNC(=O)Nc1nc2nc(-n3cnc(C(=O)O)c3)ccc2[nH]1 [Ia-185] | > 75% | > 40 µg/mL |  |
| CCCCNC(=O)c1cn(-c2ccc3[nH]c(NC(=O)NCC)nc3c2)cn1 [Ia-186] | > 75% | < 10 µg/mL |  |
| CCNC(=O)Nc1nc2nc(-n3cnc(C(=O)NC4CC4)c3)ccc2[nH]1 [Ia-187] | > 75% | 10 to 40 µg/mL (≈ 28.2 to 113 µM) |  |
| C=CCNC(=O)c1cn(-c2ccc3[nH]c(NC(=O)NCC)nc3c2)cn1 [Ia-188] | > 75% | < 10 µg/mL |  |
